Patent US20140314890A1, “COMBINATION ANTI-CANCER THERAPY” (THE FLORIDA INTERNATIONAL UNIVERSITY BOARD OF TRUSTEES, priority 2011, published 2014)

Columns and labels:
Type in all cases: cell-based
LNCaP cells [1] = experiment: Cell death / cell viability by trypan blue dye exclusion test; conditions: for inhibition of cell growth (percentage of live cells, FIG. 1): LNCaP, C-PC 250 and 500 μg/mL or topotecan 1 μM and 10 μM individually, 16 hours
Protocol: (§1) The LNCaP cells were grown as a complete monolayer in RPMI-1640 growth medium supplemented with 10% fetal bovine serum, 10,000 U/mL of penicillin, 10,000 μg/mL of streptomycin, 1% (+)-L-glutamine, and 1% amphotericin-B. The cells were grown at 37° C. under a humidified air/CO2 (19:1) atmosphere. All experiments were conducted using cells in logarithmic phase. In each well of a six-well plate, approximately 1×10^6 cells per well were grown for 24 hours.
(§2) To determine the cell viability, monolayer culture of LNCaP cells were treated with different concentrations of the C-PC (250 and 500 μg mL−1) and topotecan (1 μM and 10 μM) individually and in combination of C-PC (250 and 500 μg mL−1) with topotecan at 1 μM for 16 hours. After the incubation period, cell death was determined by using trypan blue dye exclusion test. To determine the levels of ROS generation, the cells cultured in 6-well plate were incubated with different concentrations of C-PC and topotecan as described above for 16 hours. At the end of incubation period, levels of ROS generated were measured using the NBT reduction assay.

LNCaP cells [2] = experiment: ROS generation by NBT reduction assay; conditions: 16 hours
Protocol: as §1, §2

caspase-3 = experiment: Caspase-3 activity, colorimetric assay of cell lysates (Ac-DEVD-pNA); conditions: LNCaP; C-PC 250 μg/mL, topotecan 10 μM; 16 hours
Protocol: (§3) LNCaP cells were treated with different concentrations of the C-PC (250 μg mL−1) and topotecan (10 μM) for 16 hours. After the incubation time, cells were harvested, washed and resuspended in cell lysis buffer and kept on ice for 10 minutes. The cell lysate was centrifuged at 5000 rpm for 5 minutes, the supernatant was assayed for protein concentration and further diluted with the lysis buffer to adjust the protein concentration. Equal amounts of protein from each sample was added to 96-well plates and mixed with the 2×reaction buffer [100 mM HEPES (pH 7.4), 200 mM NaCl, 20 mM dithiotheritol, 2 mM EDTA, and 0.2% chaps] and 2 mM of the respective substrates acetyl-Leu-Glu-His-Asp-p-nitroaniline (Ac-LEHD-pNA) and acetyl-Asp-Glu-Val-Asp-p-nitroaniline (Ac-DEVD-pNA). For measuring the specific activity of caspase-9 and caspase-3, the respective inhibitors Ac-LEHD-CHO and Ac-DEVD-CHO were used. Release of the cleaved p-nitroanilide from the tetrapeptide substrates was measured using the 96-well microplate reader at 405 nm.

caspase-9 = experiment: Caspase-9 activity, colorimetric assay of cell lysates (Ac-LEHD-pNA); conditions: LNCaP; C-PC 250 μg/mL, topotecan 10 μM; 16 hours
Protocol: as §3

| Compound | inhibition of cell growth (percentage of live cells, FIG. 1) (LNCaP cells [1]) | rate of ROS generation (FIG. 2) (LNCaP cells [2]) | caspase-3 activity compared to untreated control cells (FIG. 4) (caspase-3) | caspase-9 activity compared to untreated control cells (FIG. 4) (caspase-9) | antiproliferative activity (LNCaP cells [1]; prostate cancer cell line LNCaP, preliminary work) |
| --- | --- | --- | --- | --- | --- |
| CC[C@@]1(O)C(=O)OCc2c1cc1n(c2=O)Cc2cc3c(CN(C)C)c(O)ccc3nc2-1 [topotecan, reference compound] | significant inhibition of cell growth | significant increase in the rate of ROS generation | increased | increased | – |
| phycocyanin | significant inhibition of cell growth | significant increase in the rate of ROS generation | increased | increased | had antiproliferative activity |
